Results: publication PMC7023064, “Design, Synthesis, and Evaluation of Novel 2-Methoxyestradiol Derivatives as Apoptotic Inducers through an Intrinsic Apoptosis Pathway” (Biomolecules, 2020)
Read-outs that look alike come from different tables or passages of the source.

Experiments:
[1] = molecular target: T1, estradiol receptor alpha (ERα) (Homo sapiens, UniProt P03372); test: Immunohistochemical (IHC) analysis of ERα; type: cell-based; settings: 5, 10, and 20 μM, MCF-7 cells, dose-dependent
T1 construct: endogenous in cells; host or cells: MCF-7
T1 sequence (P03372 1-595): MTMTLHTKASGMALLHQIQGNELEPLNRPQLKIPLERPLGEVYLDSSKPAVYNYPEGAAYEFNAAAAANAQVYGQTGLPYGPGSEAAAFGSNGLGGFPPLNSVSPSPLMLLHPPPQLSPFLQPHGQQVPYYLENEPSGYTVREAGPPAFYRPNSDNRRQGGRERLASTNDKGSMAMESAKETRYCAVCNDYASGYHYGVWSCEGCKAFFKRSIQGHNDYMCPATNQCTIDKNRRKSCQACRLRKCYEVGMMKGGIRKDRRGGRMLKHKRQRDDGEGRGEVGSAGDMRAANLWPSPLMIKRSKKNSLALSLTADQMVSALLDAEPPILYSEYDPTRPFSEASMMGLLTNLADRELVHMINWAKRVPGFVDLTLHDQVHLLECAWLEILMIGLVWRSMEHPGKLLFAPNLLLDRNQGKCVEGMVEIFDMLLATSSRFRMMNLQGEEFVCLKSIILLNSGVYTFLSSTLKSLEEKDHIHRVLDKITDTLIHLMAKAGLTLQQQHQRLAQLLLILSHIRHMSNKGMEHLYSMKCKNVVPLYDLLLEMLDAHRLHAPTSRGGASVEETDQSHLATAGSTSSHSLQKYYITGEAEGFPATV
Method: MCF-7 cells were seeded in culture plates and treated with compound 11/12a (0, 5, 10, and 20 μM) for 72 h. Cells were collected and mounted on a slide, fixed for 30 min with 4% paraformaldehyde, and washed three times with PBS. 1% Triton X-100 was added to each cell sample, and it was permeabilized at room temperature for 10 min, then washed three times with PBS. Two drops of 3% H2O2-methanol solution were added to each cell section. After being blocked at room temperature for 10 min, the section was washed three times with PBS. Then, 50–100 μL of ready-to-use goat serum was added and cells were incubated for 20 min at room temperature. Before the cell section was incubated at 37 °C for 2 h in a wet box, 50–100 μL of a primary antibody (1:200 dilution) against estradiol receptor alpha (ERα) (Bs-1427R, Bioss Co. Ltd., Beijing, China) was added, and then washed three times with PBS. Subsequently, 50 μL of enhancer was added and cells were incubated for 30 min at room temperature, then washed three times with PBS. Fifty microliters of a universal IgG antibody-Fab fragment-HRP multimer was added dropwise, and the mixture was incubated at 37 °C for 30 min, then soaked and washed three times with PBS. After 2 drops of freshly prepared DAB (DAB-1031, MaXi Biotech Co. Ltd., FuZhou, China) solution were added to each cell section, the dyeing depth was observed under the microscope. […]

[2] = tested on: human breast adenocarcinoma MCF-7 cell lines; test: MTT cytotoxicity assay, MCF-7; type: cell-based
Method: Human breast adenocarcinoma MCF-7 cell lines, human breast cancer MDA-MB-231 cell lines, and the normal human liver L-O2 cell lines were provided by Nanjing KeyGen Biotech Co. Ltd. (Nanjing, China). MCF-7 cells were cultured in a base medium (90% RPMI-1640 and 10% FBS) at 37 °C, 5% CO2 and a saturated humidity atmosphere. MDA-MB-231 cells were cultured in a base medium (90% […] and 10% FBS) at 37 °C, 5% CO2 and a saturated humidity atmosphere. L-O2 cells were cultured in a base medium (90% DMEM and 10% FBS) at 37 °C, 5% CO2 and a saturated humidity atmosphere.
The cytotoxicity of the tested compounds was determined using the 3-(4,5-dimethyl-2-thiazolyl)-2,5-diphenyl-2-H-tetrazolium bromide (MTT) assay. Cells were seeded in 96-well plates and incubated in a 5% CO2 incubator at 37 °C. When the cells adhered, compounds at different concentrations were added to every well. After incubation for another 72 h, MTT solution (5 mg/mL) was added into each well and cells were incubated for an additional 4 h. The viable cells were stained with MTT and scanned with an electrophotometer at 570 nm. Each concentration treatment was done in triplicate wells. The half maximal inhibitory concentration (IC50) values were estimated by fitting the inhibition data to a dose-dependent curve using a logistic derivative equation.

MCF-7 cells = test: Cell apoptosis analysis (Annexin V-APC/7-AAD double staining); type: cell-based, human; settings: 72 h
Method: MCF-7 cells at a density of 2 × 10^5 cells/well were seeded on each well of 6-well plates and allowed to grow overnight. Then the cells were treated with compound 11/12a (5, 10, and 20 μM) for 72 h, while cells without treatment were used as control group. The treated cells were trypsinized and washed with cold PBS twice, then centrifuged at 2000 rpm for 5 min and resuspended in 500 μL annexin V binding buffer. 5 μL of Annexin V- allophycocyanin (APC) was added, and the mixture was incubated in the dark at 25 °C for 15 min. Then, 5 μL of 7-AAD was added just prior to acquisition. Apoptosis was analyzed by Annexin V-APC and 7-AAD double staining by flow cytometry (FACS Calibur Becton-Dickinson, San Jose, Califormia, USA).

Compound | interaction with ERα (nuclear colour, IOD value) [1] | IC50 ([2]; Homo sapiens, MCF7, MTT, 72 h, mean ± SD of three experiments, read-out: IC50 MCF-7) [µM] | IC50 ([2]; Homo sapiens, MCF7, Table 2, mean ± SD of three experiments, read-out: IC50 for MCF-7) [µM] | IC50 ([2]; Homo sapiens, MCF7, pIC50 = −log(IC50), read-out: pIC50 for MCF-7 (converted)) [µM] | total early and late apoptotic cells (MCF-7 cells; 5 μM) [%] | total early and late apoptotic cells (MCF-7 cells; 10 μM) [%] | total early and late apoptotic cells (MCF-7 cells; 20 μM) [%] | IC50 ([2]; MTT, 72 h, mean ± SD of three experiments, read-out: IC50 MCF-7) [µM] | IC50 ([2]; Table 2, mean ± SD of three experiments, read-out: IC50 for MCF-7) [µM] | pIC50 for MCF-7 ([2]; pIC50 = −log(IC50))
COc1cc2c(cc1O)CC[C@@H]1[C@@H]2CC[C@]2(C)[C@@H](OCCCCCCCCn3c(=O)ccn([C@@H]4O[C@H](CO)[C@@H](O)[C@H]4O)c3=O)CC[C@@H]12 [Compound 11, 17 β-[8-(1-β-D-Ribofuranosyluracil-3-yl)-Octyloxy]-2-Methoxy-Estra-1,3,5(10)-Triene-3-ol] | specific binding | 13.9 ± 0.16 | 13.9 ± 0.16 | 13.8 | 13.21 | 33.24 | 67.74 |  |  | 
17 β-[6-(Uracil-3-yl)-Hexyloxy]-2-Methoxy-Estra-1,3,5(10)-Triene-3-ol [Compound 12a] | specific binding |  |  |  | 12.1 | 30.86 | 67.28 | 11.2 ± 0.46 | 11.2 ± 0.46 | 4.95
